Laboratory results as given in patent publication US20130224110A1, “USE OF ADENOSINE RECEPTOR SIGNALING TO MODULATE PERMEABILITY OF BLOOD-BRAIN BARRIER” (CORNELL UNIVERSITY, priority 2010, published 2013).

Tested on: ICAM-1
Assay: ICAM-1 expression on the choroid plexus after EAE induction
Assay type: in vivo
Conditions: wild type mice after EAE induction, vs DMSO
Experimental: Anesthetized mice were perfused with PBS, and brains, spleens, and spinal cords were isolated and snap frozen in Tissue Tek-OCT medium. Five μm sections (brains in a sagittal orientation) were affixed to Supefrost/Plus slides (Fisher), fixed in acetone, and stored at −80° C. For immunostaining, slides were thawed and treated with 0.03% H2O2 in PBS to block endogenous peroxidase, blocked with Casein (Vector) in normal goat serum (Zymed), and then incubated with anti-CD45 (YW62.3), anti-CD4 (RM4-5), or anti-ICAM-1 (3E2). Slides were incubated with biotinylated goat anti-rat Ig (Jackson ImmunoResearch) and streptavidin-HRP (Zymed) and developed with an AEC (Red) substrate kit (Zymed) and a hematoxylin counterstain. […]
As CD73 catalyzes the breakdown of AMP to adenosine and ARs are expressed in the CNS (Tsutsui et al., “A1 Adenosine Receptor Upregulation and Activation Attenuates Neuroinflammation and Demyelination in a Model of Multiple Sclerosis,” J. Neurosci. 24:1521-1529 (2004)); Rosi et al., The Influence of Brain Inflammation Upon Neuronal Adenosine A2B Receptors,” J. Neurochem. 86:220-227 (2003), which are hereby incorporated by reference in their entirety), it was next determined if AR signaling is important during EAE progression. […] Since CD73 is highly expressed on the choroid plexus (FIG. 6C), it was next determined if ARs are also expressed on the choroid plexus. […]

Nc1nc2c(cnn2CCc2ccccc2)c2nc(-c3ccco3)nn12 [SCH58261, 2-(2-Furanyl)-7-(2-phenylethyl)-7H-pyrazolo[4,3-e][1,2,4]triazolo[1,5-c]pyrimidin-5-amine]
ICAM-1 up regulation on the choroid plexus: prevented the up regulation of ICAM-1
